Target: T1, purified recombinant rat FAAH (Rattus norvegicus, UniProt P97612)
T1 construct: The truncated rat FAAH (rFAAH) was expressed in E. coli and purified as described; made in house; host or cells: E. coli
T1 sequence (P97612 30-579 limits assumed): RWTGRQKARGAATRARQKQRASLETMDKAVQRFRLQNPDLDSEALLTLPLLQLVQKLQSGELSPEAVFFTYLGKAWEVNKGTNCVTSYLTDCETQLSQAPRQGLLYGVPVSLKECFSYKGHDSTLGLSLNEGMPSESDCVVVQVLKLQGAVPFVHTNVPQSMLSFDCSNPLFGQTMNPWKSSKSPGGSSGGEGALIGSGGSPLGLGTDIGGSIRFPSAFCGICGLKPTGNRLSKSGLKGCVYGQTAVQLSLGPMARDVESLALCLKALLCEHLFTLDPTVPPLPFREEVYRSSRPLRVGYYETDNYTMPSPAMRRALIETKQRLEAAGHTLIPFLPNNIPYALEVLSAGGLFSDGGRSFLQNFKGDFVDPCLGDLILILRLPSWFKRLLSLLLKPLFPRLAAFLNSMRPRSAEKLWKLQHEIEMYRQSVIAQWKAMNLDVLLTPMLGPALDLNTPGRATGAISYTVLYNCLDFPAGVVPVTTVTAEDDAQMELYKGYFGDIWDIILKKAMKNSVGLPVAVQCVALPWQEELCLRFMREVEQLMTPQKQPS
Experiment: FAAH inhibition enzyme assay (14C-oleamide hydrolysis, Dixon plot)
Assay type: biochemical
Conditions: rat FAAH
Experimental: Enzyme assays were performed at 20-23° C. with purified recombinant rat FAAH expressed in E. coli (Patricelli, M. P.; Lashuel, H. A.; et al. Biochemistry 1998, 37, 15177-15187) (unless indicated otherwise) or with solubilized COS-7 membrane extracts from cells transiently transfected with human FAAH cDNA (Giang, D. K.; Cravatt, B. F. Proc. Natl. Acad. Sci. U.S.A. 1997, 94, 2238-2242) (where specifically indicated) in a buffer of 125 mM Tris/1 mM EDTA/0.2% glycerol/0.02% Triton X-100/0.4 mM Hepes, pH 9.0 buffer (Patricelli, M. P.; Patterson, J. P.; et al. Bioorg. Med. Chem. Lett. 1998, 8, 613-618). The initial rates of hydrolysis (≦10-20% reaction) were monitored using enzyme concentrations at least three times below the measured Ki by following the breakdown of ^14C-oleamide and Ki's (standard deviations are provided in Supporting Information tables) were established as described (Dixon plot) (Boger, D. L.; Sato, H.; et al. Proc. Natl. Acad. Sci. U.S.A. 2000, 97, 5044-5049). Lineweaver-Burk analysis previously established reversible, competitive inhibition (Boger, D. L.; Miyauchi, H.; et al. J. Med. Chem. 2005, 48, 1849-1856).
FAAH Inhibition. ^14C-labeled oleamide was prepared from ^14C-labeled oleic acid as described (Cravatt, B. F.; et al. Science 1995, 268, 1506-1509). The truncated rat FAAH (rFAAH) was expressed in E. coli and purified as described (Patricelli, M. P.; Lashuel, H. A.; et al. Biochemistry 1998, 37, 15177-15187). The purified recombinant rFAAH was used in the inhibition assays unless otherwise indicated. The full-length human FAAH (hFAAH) was expressed in COS-7 cells as described (Giang, D. K.; Cravatt, B. F. Proc. Natl. Acad. Sci. U.S.A. 1997, 94, 2238-2242), and the lysate of hFAAH-transfected COS-7 cells was used in the inhibition assays where explicitly indicated.
The inhibition assays were performed as described (Cravatt, B. F.; et al. Science 1995, 268, 1506-1509). In brief, the enzyme reaction was initiated by mixing 1 nM of rFAAH (800, 500, or 200 pM rFAAH for inhibitors with Ki≦1-2 nM) with 10 μM of ^14C-labeled oleamide in 500 μL of reaction buffer (125 mM TrisCl, 1 mM EDTA, 0.2% glycerol, 0.02% Triton X-100, 0.4 mM Hepes, pH 9.0) at room temperature in the presence of three different concentrations of inhibitor. The enzyme reaction was terminated by transferring 20 μL of the reaction mixture to 500 μL of 0.1 N HCl at three different time points. The ^14C-labeled oleamide (substrate) and oleic acid (product) were extracted with EtOAc and analyzed by TLC as detailed (Cravatt, B. F.; et al. Science 1995, 268, 1506-1509). The Ki of the inhibitor was calculated using a Dixon plot as described (standard deviations are provided in the Supporting Information tables) (Boger, D. L.; Sato, H.; et al. Proc. Natl. Acad. Sci. U.S.A. 2000, 97, 5044-5049). Lineweaver-Burk analysis was performed as described confirming competitive, reversible inhibition (Boger, D. L.; Miyauchi, H.; et al. J. Med. Chem. 2005, 48, 1849-1856).

FAAH inhibitory potency (in words)	Structure (SMILES)
reductions in the Ki	O=C(CCCCCCc1cccnc1)c1ncc(-c2ccccn2)o1 [5f, 1-Oxo-1-[5-(2-pyridyl)oxazol-2-yl]-7-(3-pyridyl)heptane]
reductions in the Ki	O=C(CCCCCCc1ccccn1)c1ncc(-c2ccccn2)o1 [5e, 1-Oxo-1-[5-(2-pyridyl)oxazol-2-yl]-7-(2-pyridyl)heptane]
